Test results reported in patent US20150083906A1, “BIOMARKERS FOR MONITORING INTERVENTION THERAPIES FOR DIABETES” (MERCK SHARP & DOHME CORP., priority 2012, published 2015).
“Also recorded” adds a separate entry of the source.

How the values were obtained:
[1] = system: db/db mice; assay: Study 1: plasma N-glycan profile (GLYCANMAP, MALDI-TOF MS) and HbA1c in rosiglitazone-treated db/db mice; assay type: in vivo; conditions: 10 mpk oral once daily, vs vehicle
From the text: An initial study (Study 1) was an analysis of 160 plasma samples collected from rosiglitazone-treated mice following oral administration of 10 mpk once daily for up to 39 days. Rosigilitazone is an athiazolidinedione class of antidiabetic drug marketed by Glaxo under the trade name AVANDIA. […] These changes, on an individual N-glycan basis, reached high statistical significance (P<0.001) as early as seven days, a full two weeks prior to changes in HbA1c (day seven vs. day 21, respectively). […]
The objective of Study 1 was to evaluate N-linked glycosylation changes in plasma proteins that precede and predict the decrease in glycated hemoglobin (HbA1c) associated with successful resolution of diabetes. […] A baseline (Day 0) sample was not analyzed in the initial rosiglitazone study, but was included in the subsequent studies described in Examples 2 and 3.
GLYCANMAP Assay (a registered trademark of Ezose Sciences, Pine Brook, N.J.): A 10 μL aliquot of each plasma sample was spiked with internal standard (700 pmol) to aid in quantitation. The spiked aliquots were analyzed for N-linked glycans using GLYCANMAP methodology, which is based on the methods previously reported by Nishimura, Furukawa and Miura (Nishimura et al., Angew Chem. Int. Ed. Engl., 44: 91-96 (2004); Furukawa et al., Anal. Chem., 80: 1094-1101 (2008); Miura et al., Chem.-A Eur. J, 13: 4797-4804 (2007)). […]

[2] = system: db/db mice; assay: Study 3: plasma N-glycan profile in insulin detemir-treated db/db mice; assay type: in vivo; conditions: for Direction of Change, High Mannose glycan 520000 (Man5GlcNAc2) / Direction of Change, High Mannose glycan 620000 (Man6GlcNAc2) / Direction of Change, High Mannose glycan 720000 (Man7GlcNAc2) / Direction of Change, High Mannose glycan 820000 (Man8GlcNAc2) / Direction of Change, Hybrid glycan 430010 / Direction of Change, Hybrid glycan 530010 / Direction of Change, Hybrid glycan 630010: subcutaneous, two doses of 10 U/kg per day, days 7, 14, 21, vs vehicle
Experimental: In Study 3, changes in the N-linked glycosylation profile of total serum proteins obtained from diabetic mice were further characterized using a different drug-treatment to determine the drug specificity of the rosiglitazone-induced changes. In an animal study, insulin detemir was administered subcutaneously in two doses of 10 U/kg per day. Samples were collected from insulin detemir and vehicle-treated db/db mice at four time points (0, 7, 14, and 21 days). (Insulin detemir is a long-acting insulin marketed by Novo Nordisk under the trade name LEVEMIR.). […] The high mannose N-glycans that were decreased in the insulin-treated db/db mice were Man8GlcNAc2 (820000), Man7GlcNAc2 (720000), Man6GlcNAc2 (620000), and Man5GlcNAc2 (520000). The hybrid N-glycans that were decreased in the insulin-treated db/db mice were SiaGalGlcNAcMan3GlcNAc2 (430010), SiaGalGlcNAcMan4GlcNAc2 (530010), and SiaGalGlcNAcMan5GlcNAc2 (630010), wherein Sia is Neu5Ac or Neu5Gc.
The objective of this study was to evaluate the performance of candidate biomarkers discovered using rosiglitazone in mice treated with a diabetes drug with a different mechanism of action. The 16 candidate markers that were identified in Example 1 were evaluated in db/db mice treated with insulin detemir and vehicle.
In this Example, plasma samples were analyzed from ten db/db mice at baseline (0 days), and 20 db/db mice (ten vehicle and ten insulin detemir) at 7, 14, and 21 days. Sample preparation and analysis followed the protocol described in Example 1.
Data Analysis: For this study, the analysis was extended to evaluate changes in all detected N-glycans in order to reveal any novel N-glycan changes that might be specific to insulin detemir. The extended analysis was not performed in Study 2, which included only baseline and Day 7 time points since N-glycan changes at Day 7 could not be evaluated to determine if they are sustained over time. Drug-treated and vehicle-treated db/db mice were compared across each time point using the Student's t-test. To evaluate time-dependent changes, each time point within a treatment group was compared to its corresponding Day 0 group. N-glycans which yielded p-values <0.05 in this analysis were considered significant.
The concentrations of individual N-glycans in insulin detemir- and vehicle-treated db/db mice were compared at each time point using the Student's t-test. […] Time-dependence was also evaluated for each of the candidate markers by comparing each time point to baseline.

[3] = serum samples, vs non-treated controls

CN(CCOc1ccc(CC2SC(=O)NC2=O)cc1)c1ccccn1 (stereo not drawn) [rosiglitazone]
Time at which highly significant (p<0.001) change in HbA1c was achieved [1]: 21 days

insulin detemir
Change in O-acetylated N-glycans [2, 3]: No change
Change in fucosylated N-glycans [2, 3]: No change
Change in tetraantennary N-glycans [2, 3]: No change
Direction of Change, High Mannose glycan 520000 (Man5GlcNAc2) [2]: decreased; also recorded: lower
Direction of Change, High Mannose glycan 620000 (Man6GlcNAc2) [2]: decreased; also recorded: lower
Direction of Change, High Mannose glycan 720000 (Man7GlcNAc2) [2]: decreased; also recorded: lower
Direction of Change, High Mannose glycan 820000 (Man8GlcNAc2) [2]: decreased; also recorded: lower
Direction of Change, Hybrid glycan 430010 [2]: decreases; also recorded: lower
Direction of Change, Hybrid glycan 530010 [2]: decreases; also recorded: lower
Direction of Change, Hybrid glycan 630010 [2]: decreases; also recorded: lower
Direction of Change, High Mannose glycan 520000 (Man5GlcNAc2) ([2]; listed as Insulin Detemir): Decreased
Direction of Change, High Mannose glycan 620000 (Man6GlcNAc2) ([2]; listed as Insulin Detemir): Decreased
Direction of Change, High Mannose glycan 720000 (Man7GlcNAc2) ([2]; listed as Insulin Detemir): Decreased
Direction of Change, High Mannose glycan 820000 (Man8GlcNAc2) ([2]; listed as Insulin Detemir): Decreased
Direction of Change, Hybrid glycan 430010 ([2]; listed as Insulin Detemir): Decreased
Direction of Change, Hybrid glycan 530010 ([2]; listed as Insulin Detemir): Decreased
Direction of Change, Hybrid glycan 630010 ([2]; listed as Insulin Detemir): Decreased
